The results in this text go back to patent publication US20240398828A1, “HETERO-ATOM CONTAINING COMPOUNDS AND USES THEREOF” (Kumquat Biosciences Inc., priority 2021, published 2024).

The target of one experiment is T1, PTPN2 (i.e., TC-PTP) (Homo sapiens, UniProt P17706).
T1 sequence (P17706 1-415): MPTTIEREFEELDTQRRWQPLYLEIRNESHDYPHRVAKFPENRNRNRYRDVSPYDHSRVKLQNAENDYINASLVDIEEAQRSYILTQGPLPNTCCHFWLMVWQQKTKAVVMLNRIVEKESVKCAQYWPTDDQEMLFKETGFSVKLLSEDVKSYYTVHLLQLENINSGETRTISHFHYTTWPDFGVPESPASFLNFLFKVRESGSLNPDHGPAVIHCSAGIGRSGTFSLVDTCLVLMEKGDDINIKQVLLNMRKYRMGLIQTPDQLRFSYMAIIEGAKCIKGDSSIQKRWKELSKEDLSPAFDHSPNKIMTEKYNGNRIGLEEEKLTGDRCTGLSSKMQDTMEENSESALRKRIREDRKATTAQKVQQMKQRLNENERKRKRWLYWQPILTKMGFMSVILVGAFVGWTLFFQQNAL
The experiment can be described thus: Phosphatase activity assay (DiFMUP substrate), PTPN2. The format is biochemical. As to conditions: compounds binned ≤1 uM or >1 uM. The gist of the method:
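Using a Km-level DiFMUP substrate and 0.025 ng/ul PTPN2, phosphatase activity is tracked by DiFMU emission at 450 nm over about 15–30 minutes. Initial rates at ten inhibitor concentrations give IC50 by four-parameter fitting.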

A further experiment deals with T2, PTPN1 (i.e., PTP1B) (Homo sapiens, UniProt P18031).
T2 sequence (P18031 1-435): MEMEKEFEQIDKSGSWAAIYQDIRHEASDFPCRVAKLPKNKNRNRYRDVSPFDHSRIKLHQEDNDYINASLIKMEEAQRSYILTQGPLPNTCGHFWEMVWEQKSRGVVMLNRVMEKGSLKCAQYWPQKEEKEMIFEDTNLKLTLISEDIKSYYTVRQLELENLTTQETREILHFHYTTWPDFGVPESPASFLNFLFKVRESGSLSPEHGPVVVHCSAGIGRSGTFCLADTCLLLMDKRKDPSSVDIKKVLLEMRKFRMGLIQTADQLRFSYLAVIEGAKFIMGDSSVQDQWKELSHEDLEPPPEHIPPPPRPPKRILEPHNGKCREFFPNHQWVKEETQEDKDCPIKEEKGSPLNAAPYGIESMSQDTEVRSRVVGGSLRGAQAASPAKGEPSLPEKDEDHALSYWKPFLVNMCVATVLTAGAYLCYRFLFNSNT
Nature of the experiment: Phosphatase activity assay (DiFMUP substrate), PTP1B. The format is biochemical. To be noted: compounds binned ≤1 uM or >1 uM. A digest of the protocol: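 Continuous fluorogenic readout of DiFMUP dephosphorylation at room temperature, substrate set at Km for each phosphatase (about 45 μM in the PTPN2 assay). The buffer contains 1 mM DTT and 0.001% Tween-20, pH 7.5.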

As usually defined, the IC50 is the concentration that gives 50% inhibition. As to `O=C1CN(c2c(O)ccc(-c3ccc(=O)n(Cc4ccccc4)c3)c2F)S(=O)(=O)N1` [Compound 220, 5-(3-(1-benzyl-6-oxo-1,6-dihydropyridin-3-yl)-2-fluoro-6-hydroxyphenyl)-1,2,5-thiadiazolidin-3-one 1,1-dioxide], the IC50 was no more than 1 µM at PTPN2 (i.e., TC-PTP) and no more than 1 µM on PTPN1 (i.e., PTP1B).

`O=C1CN(c2c(O)ccc(-c3cnn(C4CC4(F)F)c3)c2F)S(=O)(=O)N1` (stereo not drawn) [Compound 424, 5-(3-(1-(2,2-difluorocyclopropyl)-1H-pyrazol-4-yl)-2-fluoro-6-hydroxyphenyl)-1,2,5-thiadiazolidin-3-one 1,1-dioxide]: the IC50 at PTPN2 (i.e., TC-PTP) was no more than 1 µM; at PTPN1 (i.e., PTP1B) it was no more than 1 µM.

With `O=C1CN(c2c(O)ccc(-c3cnn(C(F)(F)F)c3)c2F)S(=O)(=O)N1` [Compound 264, 5-(2-fluoro-6-hydroxy-3-(1-(trifluoromethyl)-1H-pyrazol-4-yl)phenyl)-1,2,5-thiadiazolidin-3-one 1,1-dioxide], the IC50 at PTPN2 (i.e., TC-PTP) was no more than 1 µM; on PTPN1 (i.e., PTP1B), no more than 1 µM.

For the compound `O=C1CN(c2c(O)ccc(-c3cnn(CC4CCCCC4)c3)c2F)S(=O)(=O)N1` [Compound 179, 5-(3-(1-(cyclohexylmethyl)-1H-pyrazol-4-yl)-2-fluoro-6-hydroxyphenyl)-1,2,5-thiadiazolidin-3-one 1,1-dioxide], the IC50 was no more than 1 µM on PTPN2 (i.e., TC-PTP) and no more than 1 µM on PTPN1 (i.e., PTP1B).

With `N=C(N)N1CC=C(c2ccc(O)c(N3CC(=O)NS3(=O)=O)c2F)C1` [Compound 502, 3-(3-(1,1-dioxido-4-oxo-1,2,5-thiadiazolidin-2-yl)-2-fluoro-4-hydroxyphenyl)-2,5-dihydro-1H-pyrrole-1-carboximidamide], the IC50 on PTPN2 (i.e., TC-PTP) was no more than 1 µM; at PTPN1 (i.e., PTP1B) it was no more than 1 µM.

As for `O=C1CN(c2c(O)ccc(-c3ccc(-c4ccccc4)nc3)c2F)S(=O)(=O)N1` [Compound 120, 5-(2-fluoro-6-hydroxy-3-(6-phenylpyridin-3-yl)phenyl)-1,2,5-thiadiazolidin-3-one 1,1-dioxide], the IC50 on PTPN2 (i.e., TC-PTP) was no more than 1 µM; at PTPN1 (i.e., PTP1B), no more than 1 µM.

Consider `CS(=O)(=O)n1nc(-c2ccc(O)c(N3CC(=O)NS3(=O)=O)c2F)cc1C1CC1` [Compound 498, 5-(3-(5-cyclopropyl-1-(methylsulfonyl)-1H-pyrazol-3-yl)-2-fluoro-6-hydroxyphenyl)-1,2,5-thiadiazolidin-3-one 1,1-dioxide], for which the IC50 at PTPN2 (i.e., TC-PTP) was no more than 1 µM; at PTPN1 (i.e., PTP1B), no more than 1 µM.

For the compound `O=C1CN(c2c(O)ccc(-c3cnn(CCc4ccccc4)c3)c2F)S(=O)(=O)N1` [Compound 207, 5-(2-fluoro-6-hydroxy-3-(1-phenethyl-1H-pyrazol-4-yl)phenyl)-1,2,5-thiadiazolidin-3-one 1,1-dioxide], the IC50 on PTPN2 (i.e., TC-PTP) was no more than 1 µM; on PTPN1 (i.e., PTP1B), no more than 1 µM.

For `Cc1cn(-c2ccc(O)c(N3CC(=O)NS3(=O)=O)c2F)nc1O` [Compound 299, 5-(2-fluoro-6-hydroxy-3-(3-hydroxy-4-methyl-1H-pyrazol-1-yl)phenyl)-1,2,5-thiadiazolidin-3-one 1,1-dioxide], the IC50 on PTPN2 (i.e., TC-PTP) is no more than 1 µM; at PTPN1 (i.e., PTP1B), no more than 1 µM.

For `O=C1CN(c2c(O)ccc(-c3cccc(NS(=O)(=O)C4CC4)c3)c2F)S(=O)(=O)N1` [Compound 449, N-(3′-(1,1-dioxido-4-oxo-1,2,5-thiadiazolidin-2-yl)-2′-fluoro-4′-hydroxy-[1,1′-biphenyl]-3-yl)cyclopropanesulfonamide], the IC50 at PTPN2 (i.e., TC-PTP) was no more than 1 µM; at PTPN1 (i.e., PTP1B), no more than 1 µM.

Consider `CC(C)CCN1CCC=C(c2ccc(O)c(N3CC(=O)NS3(=O)=O)c2F)C1` [Compound 210, 5-(2-fluoro-6-hydroxy-3-(1-isopentyl-1,2,5,6-tetrahydropyridin-3-yl)phenyl)-1,2,5-thiadiazolidin-3-one 1,1-dioxide], for which the IC50 is no more than 1 µM at PTPN2 (i.e., TC-PTP) and no more than 1 µM on PTPN1 (i.e., PTP1B).

Regarding `O=C1CN(c2c(O)ccc(-c3cnn(CC4(O)CCC4)c3)c2F)S(=O)(=O)N1` [Compound 307, 5-(2-fluoro-6-hydroxy-3-(1-((1-hydroxycyclobutyl)methyl)-1H-pyrazol-4-yl)phenyl)-1,2,5-thiadiazolidin-3-one 1,1-dioxide], the IC50 is no more than 1 µM at PTPN2 (i.e., TC-PTP) and no more than 1 µM on PTPN1 (i.e., PTP1B).

On to `O=C1CN(c2c(O)ccc(-c3ccc(NS(=O)(=O)C4CC4)cc3)c2F)S(=O)(=O)N1` [Compound 292, N-(3′-(1,1-dioxido-4-oxo-1,2,5-thiadiazolidin-2-yl)-2′-fluoro-4′-hydroxy-[1,1′-biphenyl]-4-yl)cyclopropanesulfonamide], for which the IC50 was no more than 1 µM at PTPN2 (i.e., TC-PTP) and no more than 1 µM at PTPN1 (i.e., PTP1B).

On to `O=C1CN(c2c(O)ccc(-c3ccc(OCC4CC4)nc3)c2F)S(=O)(=O)N1` [Compound 166, 5-(3-(6-(cyclopropylmethoxy)pyridin-3-yl)-2-fluoro-6-hydroxyphenyl)-1,2,5-thiadiazolidin-3-one 1,1-dioxide], for which the IC50 on PTPN2 (i.e., TC-PTP) is no more than 1 µM; on PTPN1 (i.e., PTP1B) it was no more than 1 µM.

Turning to `CNC(=O)n1nc(-c2ccc(O)c(N3CC(=O)NS3(=O)=O)c2F)cc1C1CC1` [Compound 543, 5-cyclopropyl-3-(3-(1,1-dioxido-4-oxo-1,2,5-thiadiazolidin-2-yl)-2-fluoro-4-hydroxyphenyl)-N-methyl-1H-pyrazole-1-carboxamide], the IC50 was no more than 1 µM at PTPN2 (i.e., TC-PTP) and no more than 1 µM at PTPN1 (i.e., PTP1B).

`O=C1CN(c2c(O)ccc(C3CCN(S(=O)(=O)C4CC4)CC3)c2F)S(=O)(=O)N1` [Compound 285, 5-(3-(1-(cyclopropylsulfonyl)piperidin-4-yl)-2-fluoro-6-hydroxyphenyl)-1,2,5-thiadiazolidin-3-one 1,1-dioxide]: the IC50 was no more than 1 µM at PTPN2 (i.e., TC-PTP) and no more than 1 µM at PTPN1 (i.e., PTP1B).

For the compound `Cc1cc(-c2ccc(O)c(N3CC(=O)NS3(=O)=O)c2F)[nH]n1` [Compound 183, 5-(2-fluoro-6-hydroxy-3-(3-methyl-1H-pyrazol-5-yl)phenyl)-1,2,5-thiadiazolidin-3-one 1,1-dioxide], the IC50 is no more than 1 µM on PTPN2 (i.e., TC-PTP) and no more than 1 µM on PTPN1 (i.e., PTP1B).

`CN(C)c1ccc(-c2ccc(O)c(N3CC(=O)NS3(=O)=O)c2F)cn1` [Compound 208, 5-(3-(6-(dimethylamino)pyridin-3-yl)-2-fluoro-6-hydroxyphenyl)-1,2,5-thiadiazolidin-3-one 1,1-dioxide]: the IC50 at PTPN2 (i.e., TC-PTP) was no more than 1 µM; at PTPN1 (i.e., PTP1B) it was no more than 1 µM.

For `CC(C)C1C=C(c2ccc(O)c(N3CC(=O)NS3(=O)=O)c2F)CN1` (stereo not drawn) [Compound 482, 5-(2-fluoro-6-hydroxy-3-(5-isopropyl-2,5-dihydro-1H-pyrrol-3-yl)phenyl)-1,2,5-thiadiazolidin-3-one 1,1-dioxide], the IC50 at PTPN2 (i.e., TC-PTP) is no more than 1 µM; at PTPN1 (i.e., PTP1B) it was no more than 1 µM.

For the compound `N#C[C@H]1CC[C@@H](n2cc(-c3ccc(O)c(N4CC(=O)NS4(=O)=O)c3F)cn2)CC1` [Compound 280, (1s,4s)-4-(4-(3-(1,1-dioxido-4-oxo-1,2,5-thiadiazolidin-2-yl)-2-fluoro-4-hydroxyphenyl)-1H-pyrazol-1-yl)cyclohexane-1-carbonitrile], the IC50 is no more than 1 µM at PTPN2 (i.e., TC-PTP) and no more than 1 µM on PTPN1 (i.e., PTP1B).

Take `Nc1nc2ccc(-c3ccc(O)c(N4CC(=O)NS4(=O)=O)c3F)cc2s1` [Compound 135, 5-(3-(2-aminobenzo[d]thiazol-6-yl)-2-fluoro-6-hydroxyphenyl)-1,2,5-thiadiazolidin-3-one 1,1-dioxide]: the IC50 on PTPN2 (i.e., TC-PTP) was no more than 1 µM; on PTPN1 (i.e., PTP1B), no more than 1 µM.

`O=C1CN(c2c(O)ccc(C3CNC(CO)C3)c2F)S(=O)(=O)N1` (stereo not drawn) [Compound 327, 5-(2-fluoro-6-hydroxy-3-(5-(hydroxymethyl)pyrrolidin-3-yl)phenyl)-1,2,5-thiadiazolidin-3-one 1,1-dioxide]: the IC50 at PTPN2 (i.e., TC-PTP) was no more than 1 µM; at PTPN1 (i.e., PTP1B), no more than 1 µM.

For `Cc1c(C2CC2)n[nH]c1-c1ccc(O)c(N2CC(=O)NS2(=O)=O)c1F` [Compound 254, 5-(3-(3-cyclopropyl-4-methyl-1H-pyrazol-5-yl)-2-fluoro-6-hydroxyphenyl)-1,2,5-thiadiazolidin-3-one 1,1-dioxide], the IC50 at PTPN2 (i.e., TC-PTP) was no more than 1 µM; on PTPN1 (i.e., PTP1B), no more than 1 µM.

`CC(C)CNCc1cc(-c2ccc(O)c(N3CC(=O)NS3(=O)=O)c2F)[nH]n1` [Compound 436, 5-(2-fluoro-6-hydroxy-3-(3-((isobutylamino)methyl)-1H-pyrazol-5-yl)phenyl)-1,2,5-thiadiazolidin-3-one 1,1-dioxide]: the 50% inhibitory concentration (IC50) on PTPN2 (i.e., TC-PTP) was no more than 1 µM; at PTPN1 (i.e., PTP1B), no more than 1 µM.
